Measured values as given in patent US10647680B2, “Urea compound, preparation method therefor and medical use thereof” (Ancureall Pharmaceutical (Shanghai) Co., Ltd., priority 2016, dated 2020).
Counter-ions that a name gives are not always drawn. Each block holds one compound with its values, some of them ahead of it.

Columns and labels:
U937 (FLT3 wild-type) = assay: In vitro growth inhibition (GI50), U937; type: cell-based; conditions: Homo sapiens, U-937; Cell lines of leukemia; read-out: GI 50 U937 FLT 3(WT)
HL-60 (FLT3 wild type) = assay: In vitro growth inhibition (GI50), HL-60; type: cell-based; conditions: Homo sapiens, Cell lines of leukemia, read-out: GI 50 HL60 FLT3 (WT)
How it was run: (§1)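 Cells in RPMI1640 with 10% FBS, seeded at 5–10×10^4 cells/mL, exposed next day to compound at 5,000 nM down to 0.01 nM (2- or 10-fold dilutions, ≤1% solvent) for 3–5 days at 37 °C. CCK8 absorbance at 450 nm, growth rate relative to pre-treatment and solvent controls, GI50 from concentration–growth curve.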

[1] = test system: MV4-11 (FLT3 ITD+/+ mutant type); assay: In vitro growth inhibition (GI50), MV4-11; type: cell-based, human; conditions: for GI50: Homo sapiens, MV4-11, Cell lines of leukemia, read-out: GI 50 MV4-11 FLT3 (ITD +/+)
[2] = test system: Kasumi-1 (c-Kit N822K mutant type); assay: In vitro growth inhibition (GI50), Kasumi-1; type: cell-based; conditions: Homo sapiens, Cell lines of leukemia, read-out: GI 50 Kasumi-1 Kit (N822K)
How it was run: as §1

[3] = test system: MOLM-13 (FLT3 ITD+/− mutant type); assay: In vitro growth inhibition (GI50), MOLM-13; type: cell-based, human; conditions: for GI50: Homo sapiens, MOLM-13, Cell lines of leukemia, read-out: GI 50 MOLM-13 FLT3 (ITD+/−)
[4] = test system: KG-1 (expressing FGFR1OP2-FGFR1 fusion protein); assay: In vitro growth inhibition (GI50), KG-1; type: cell-based; conditions: Homo sapiens; Cell lines of leukemia; read-out: GI 50 KG-1 FGFR1OP 2-FGFR1
[5] = test system: RAMOS (positive expression of Brutons tyrosine protein kinase); assay: In vitro growth inhibition (GI50), RAMOS; type: cell-based; conditions: Homo sapiens, Cell lines of leukemia, read-out: GI 50 Ramos BTK
[6] = test system: K562 (FLT3 negative expression, positive expression of BCR-ABL fusion protein); assay: In vitro growth inhibition (GI50), K562; type: cell-based; conditions: Homo sapiens, Cell lines of leukemia, read-out: GI 50 K562 BCR-ABL
[7] = test system: OCI-AML3 (NPMc+ mutant type); assay: In vitro growth inhibition (GI50), OCI-AML3; type: cell-based; conditions: Homo sapiens, OCI-AML-3; Cell lines of leukemia; read-out: GI 50 OCI- AML3 NPMc+
RS4; 11 (FLT3 wild type) = assay: In vitro growth inhibition (GI50), RS4; 11; type: cell-based, human; conditions: Homo sapiens, RS4-11; Cell lines of leukemia; read-out: GI 50 RS4: 11 FLT3 (WT)
Solubility test = type: physicochemical; conditions: in water at 25° C.±2° C.
Procedure: The fine powder of the test sample was weighed into an appropriate amount of water at 25° C.±2° C. and shaken vigorously for 30 seconds every 5 minutes so that it was fully dissolved within 30 minutes. If no visible solute particles were observed, it was considered completely dissolved. “Readily soluble” means that 1 g of the test sample could be dissolved in 1-10 ml of water; and “soluble” means that 1 g of the test sample could be dissolved in 10-30 ml of water; “slightly soluble” means that 1 g of the test sample could be dissolved in 30-100 ml of water; and “sparingly soluble” means that 1 g of the test sample could be dissolved in 100-1,000 ml of water; “nearly insoluble or insoluble” means that 1 g of the test sample could not be completely dissolved in 10,000 ml of water.

[8] = compared with the control compound AC220

GI50 (U937 (FLT3 wild-type)): 100 to 1000 nM | GI50 (HL-60 (FLT3 wild type)): 100 to 1000 nM | GI50 [1]: 0.01 to 0.1 nM | GI50 [3]: 0.01 to 0.1 nM | GI50 [5]: 100 to 1000 nM | GI50 [6]: 100 to 1000 nM | GI50 [7]: > 1000 nM | GI50 (RS4; 11 (FLT3 wild type)): 10 to 100 nM
Structure (SMILES): CN(C)CCCOc1ccc2c(c1)ncn2-c1ccc(NC(=O)Nc2cc(C(C)(C)C)n[nH]2)cc1 [Compound 81]
inhibition activity against the growth of MV4-11 cells compared with AC220 [1, 8]: stronger inhibition activity | GI50 [2]: > 1000 nM | inhibition activity against the growth of MOLM-13 cells compared with AC220 [3, 8]: stronger inhibition activity | GI50 [4]: > 1000 nM | Solubility (Solubility test; listed as 81 Free base): insoluble (“nearly insoluble or insoluble” means that 1 g of the test sample could not be completely dissolved in 10,000 ml of water)

GI50 (U937 (FLT3 wild-type)): > 1000 nM | GI50 (HL-60 (FLT3 wild type)): > 1000 nM | GI50 [1]: 100 to 1000 nM | GI50 [3]: 100 to 1000 nM | GI50 [5]: > 1000 nM | GI50 [6]: > 1000 nM | GI50 [7]: > 1000 nM | GI50 (RS4; 11 (FLT3 wild type)): > 1000 nM
Structure (SMILES): CCCCCCOc1ccc2c(c1)ncn2-c1ccc(NC(=O)n2nc(C(C)(C)C)cc2N)cc1 [Compound 117, 5-amino-3-tert-butyl-pyrazol-1-carboxylic acid [4-(5-hexyloxyl-benzimidazol-1-yl)-phenyl]-amide]
GI50 [2]: > 1000 nM | GI50 [4]: > 1000 nM | Solubility (Solubility test; listed as 117 Free base): insoluble (“nearly insoluble or insoluble” means that 1 g of the test sample could not be completely dissolved in 10,000 ml of water)

Structure (SMILES): COCCOc1ccc2c(c1)ncn2-c1ccc(NC(=O)Nc2cc(C(C)(C)C)n[nH]2)cc1 [Compound 77 Benzene sulfonate, 1-(5-tert-butyl-2H-pyrazol-3-yl)-3-{4-[5-(2-methoxyl-ethoxyl)-benzimidazol-1-yl]-phenyl}-urea]
Solubility (Solubility test; listed as 77 Benzene sulfonate): slightly soluble (“slightly soluble” means that 1 g of the test sample could be dissolved in 30-100 ml of water)

Structure (SMILES): COCCOc1ccc2c(c1)ncn2-c1ccc(NC(=O)Nc2cc(C(C)(C)C)n[nH]2)cc1 [Compound 77 Trifluoroacetates, 1-(5-tert-butyl-2H-pyrazol-3-yl)-3-{4-[5-(2-methoxyl-ethoxyl)-benzimidazol-1-yl]-phenyl}-urea]
Solubility (Solubility test; listed as 77 Trifluoroacetates): slightly soluble (“slightly soluble” means that 1 g of the test sample could be dissolved in 30-100 ml of water)

Structure (SMILES): CN(C)CCCOc1ccc2c(c1)ncn2-c1ccc(NC(=O)Nc2cc(C(C)(C)C)n[nH]2)cc1 [Compound 81 Mesylate]
Solubility (Solubility test): readily soluble (“Readily soluble” means that 1 g of the test sample could be dissolved in 1-10 ml of water)

Structure (SMILES): COCCOc1ccc2c(c1)ncn2-c1ccc(NC(=O)Nc2cc(C(C)(C)C)n[nH]2)cc1 [Compound 77 p-toluenesulfonate, 1-(5-tert-butyl-2H-pyrazol-3-yl)-3-{4-[5-(2-methoxyl-ethoxyl)-benzimidazol-1-yl]-phenyl}-urea]
Solubility (Solubility test; listed as 77 p-toluenesulfonate): slightly soluble (“slightly soluble” means that 1 g of the test sample could be dissolved in 30-100 ml of water)

Structure (SMILES): COCCOc1ccc2ncn(-c3ccc(NC(=O)Nc4cc(C(C)(C)C)n[nH]4)cc3)c2c1 [Compound 98 Mesylate, 1-(5-tert-butyl-2H-pyrazol-3-yl)-3-{4-[6-(2-methoxyl-ethoxyl)-benzimidazol-1-yl]-phenyl}-urea]
Solubility (Solubility test): readily soluble (“Readily soluble” means that 1 g of the test sample could be dissolved in 1-10 ml of water)

Structure (SMILES): COc1cc2ncn(-c3ccc(NC(=O)n4nc(C(C)(C)C)cc4N)cc3)c2cc1OC [Compound 129 Mesylate, 5-amino-3-tert-butyl-pyrazol-1-carboxylic acid [4-(5,6-dimethoxyl-benzimidazol-1-yl)-phenyl]-amide]
Solubility (Solubility test): readily soluble (“Readily soluble” means that 1 g of the test sample could be dissolved in 1-10 ml of water)

GI50 (U937 (FLT3 wild-type)): > 1000 nM | GI50 (HL-60 (FLT3 wild type)): > 1000 nM | GI50 [1]: 0.1 to 1 nM | GI50 [3]: 0.1 to 1 nM | GI50 [5]: > 1000 nM | GI50 [6]: > 1000 nM | GI50 [7]: > 1000 nM | GI50 (RS4; 11 (FLT3 wild type)): > 1000 nM
Structure (SMILES): COCCOc1ccc2ncn(-c3ccc(NC(=O)Nc4cc(C(C)(C)C)n[nH]4)cc3)c2c1 [Compound 98, 1-(5-tert-butyl-2H-pyrazol-3-yl)-3-{4-[6-(2-methoxyl-ethoxyl)-benzimidazol-1-yl]-phenyl}-urea]
GI50 [2]: > 1000 nM | GI50 [4]: > 1000 nM | Solubility (Solubility test; listed as 98 Free base): insoluble (“nearly insoluble or insoluble” means that 1 g of the test sample could not be completely dissolved in 10,000 ml of water)

GI50 (U937 (FLT3 wild-type)): > 1000 nM | GI50 (HL-60 (FLT3 wild type)): > 1000 nM | GI50 [1]: 100 to 1000 nM | GI50 [3]: 100 to 1000 nM | GI50 [5]: > 1000 nM | GI50 [6]: > 1000 nM | GI50 [7]: > 1000 nM | GI50 (RS4; 11 (FLT3 wild type)): > 1000 nM
Structure (SMILES): CC(C)(C)c1cc(N)n(C(=O)Nc2ccc(-n3cnc4cc(OCCO)ccc43)cc2)n1 [Compound 121, 5-amino-3-tert-butyl-pyrazol-1-carboxylic acid {4-[5-(2-hydroxy-ethoxyl)-benzimidazol-1-yl]-phenyl}-amide]
GI50 [2]: > 1000 nM | GI50 [4]: > 1000 nM | Solubility (Solubility test; listed as 121 Free base): insoluble (“nearly insoluble or insoluble” means that 1 g of the test sample could not be completely dissolved in 10,000 ml of water)

Structure (SMILES): COc1ccc2c(c1)ncn2-c1ccc(NC(=O)Nc2cc(C(C)(C)C)n[nH]2)cc1 [Compound 71 Hydrochloride, 1-(5-tert-butyl-2H-pyrazol-3-yl)-3-[4-(5-methoxyl-benzimidazol-1-yl)-phenyl]-urea]
Solubility (Solubility test; listed as 71 Hydrochloride): slightly soluble (“slightly soluble” means that 1 g of the test sample could be dissolved in 30-100 ml of water)

Structure (SMILES): CC(C)(C)c1cc(NC(=O)Nc2ccc(-n3cnc4cc(OCCN5CCOCC5)ccc43)cc2)[nH]n1 [Compound 89 Mesylate, 1-(5-tert-butyl-2H-pyrazol-3-yl)-3-{4-[5-(2-morpholin-4-yl-ethoxyl)-benzimidazol-1-yl]-phenyl}-urea]
Solubility (Solubility test): readily soluble (“Readily soluble” means that 1 g of the test sample could be dissolved in 1-10 ml of water)

Structure (SMILES): CCCCCCOc1ccc2c(c1)ncn2-c1ccc(NC(=O)n2nc(C(C)(C)C)cc2N)cc1 [Compound 117 Mesylate, 5-amino-3-tert-butyl-pyrazol-1-carboxylic acid [4-(5-hexyloxyl-benzimidazol-1-yl)-phenyl]-amide]
Solubility (Solubility test): readily soluble (“Readily soluble” means that 1 g of the test sample could be dissolved in 1-10 ml of water)

Structure (SMILES): CC(C)(C)c1cc(N)n(C(=O)Nc2ccc(-n3cnc4cc(OCCO)ccc43)cc2)n1 [Compound 121 Mesylate, 5-amino-3-tert-butyl-pyrazol-1-carboxylic acid {4-[5-(2-hydroxy-ethoxyl)-benzimidazol-1-yl]-phenyl}-amide]
Solubility (Solubility test): readily soluble (“Readily soluble” means that 1 g of the test sample could be dissolved in 1-10 ml of water)

Structure (SMILES): CC(C)(C)c1cc(NC(=O)Nc2ccc(-n3cnc4cc(OCCN5CCOCC5)ccc43)cc2)no1 [Compound 16 Mesylate, 1-(5-tert-butyl-isoxazol-3-yl)-3-{4-[5-(2-morpholin-4-yl-ethoxyl)-benzimidazol-1-yl]-phenyl}-urea]
Solubility (Solubility test; listed as 16 Mesylate): readily soluble (“Readily soluble” means that 1 g of the test sample could be dissolved in 1-10 ml of water)

Structure (SMILES): COCCOc1ccc2c(c1)ncn2-c1ccc(NC(=O)Nc2cc(C(C)(C)C)n[nH]2)cc1 [Compound 77 Hydrochloride, 1-(5-tert-butyl-2H-pyrazol-3-yl)-3-{4-[5-(2-methoxyl-ethoxyl)-benzimidazol-1-yl]-phenyl}-urea]
Solubility (Solubility test; listed as 77 Hydrochloride): slightly soluble (“slightly soluble” means that 1 g of the test sample could be dissolved in 30-100 ml of water)
